In PMC9516332 (Frontiers in Oncology, 2022):
Like-named read-outs stand apart in the source and are kept apart here.

Legend:
[1] = target: T1, panel of 255 wild-type kinases (Homo sapiens, UniProt O15264); conditions: p38δ; 1 µmol/L single concentration; ref DOI: 10.1158/1535-7163.MCT-18-0877; cited from earlier work
T1 sequence (O15264 1-365): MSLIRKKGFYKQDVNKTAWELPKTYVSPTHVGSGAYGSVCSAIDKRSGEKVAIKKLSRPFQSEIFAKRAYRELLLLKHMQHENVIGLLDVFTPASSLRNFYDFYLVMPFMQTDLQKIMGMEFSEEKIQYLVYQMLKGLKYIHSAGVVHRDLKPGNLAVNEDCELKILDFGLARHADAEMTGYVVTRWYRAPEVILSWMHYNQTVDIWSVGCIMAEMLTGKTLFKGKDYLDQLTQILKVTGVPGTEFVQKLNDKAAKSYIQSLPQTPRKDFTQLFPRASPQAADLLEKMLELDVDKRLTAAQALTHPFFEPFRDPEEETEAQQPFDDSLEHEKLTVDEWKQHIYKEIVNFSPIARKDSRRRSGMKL

[2] = target: panel of 255 wild-type kinases (Homo sapiens, UniProt Q9UBS0); conditions: p70S6Kβ; 1 µmol/L single concentration; ref DOI: 10.1158/1535-7163.MCT-18-0877; cited from earlier work
[3] = target: panel of 255 wild-type kinases (Homo sapiens, UniProt Q15119); conditions: kinase PDHK2; 1 µmol/L single concentration; ref DOI: 10.1158/1535-7163.MCT-18-0877; cited from earlier work
[4] = target: panel of 255 wild-type kinases (Homo sapiens, UniProt Q9P286); conditions: PAK5; 1 µmol/L single concentration; ref DOI: 10.1158/1535-7163.MCT-18-0877; cited from earlier work
134 cancer cell lines [5] = system: 134 cancer cell lines
134 cancer cell lines [6] = experiment: Cell viability assay (ATPlite, 72 hours), IC50 on cancer cell line panel

For `Cc1cc(Nc2ncc(Cl)c(Nc3ccccc3S(=O)(=O)C(C)C)n2)c(OC(C)C)cc1C1CCNCC1` [ceritinib], the “%-inhibition, p38δ” value [1] is given as 3%, the “%-inhibition, p70S6Kβ” value [2] is given as 70% and the “%-inhibition at 1 µmol/L, PDHK2” value [3] is given as -1.41%. For the same compound, the “%-inhibition, PAK5” value [4] was 15%, the IC50 (134 cancer cell lines [5]) was 3.85 µM and the IC50 (134 cancer cell lines [6]; HEC-6, read-out: IC50 in cell proliferation assay, HEC-6 cell line (EGFR p.A289V)) was 3.25 µM. The IC50 (134 cancer cell lines [6]; Homo sapiens, 769-P, read-out: IC50 in cell proliferation assay, cell line 769-P) was 2.85 µM, the IC50 (134 cancer cell lines [6]; Homo sapiens, 786-0, read-out: IC50 in cell proliferation assay, cell line 786-O) was 3.28 µM and the IC50 (134 cancer cell lines [6]; Homo sapiens, A 172, read-out: IC50 in cell proliferation assay, cell line A-172) was 3.94 µM. For the same compound, the IC50 (134 cancer cell lines [6]; Homo sapiens, A204, read-out: IC50 in cell proliferation assay, cell line A-204) was 2.68 µM, the IC50 (134 cancer cell lines [6]; Homo sapiens, A498, read-out: IC50 in cell proliferation assay, cell line A-498) was 4.17 µM and the IC50 (134 cancer cell lines [6]; Homo sapiens, A549, read-out: IC50 in cell proliferation assay, cell line A-549) was 4.56 µM. It also gave an IC50 (134 cancer cell lines [6]; Homo sapiens, A704, read-out: IC50 in cell proliferation assay, cell line A-704) of 6.19 µM, an IC50 (134 cancer cell lines [6]; Homo sapiens, A-375, read-out: IC50 in cell proliferation assay, cell line A-375 (BRAF p.V600E)) of 1.61 µM and an IC50 (134 cancer cell lines [6]; Homo sapiens, A-427, read-out: IC50 in cell proliferation assay, cell line A-427) of 1.45 µM. The IC50 (134 cancer cell lines [6]; Homo sapiens, ACHN, read-out: IC50 in cell proliferation assay, cell line ACHN) was 4.78 µM, the IC50 (134 cancer cell lines [6]; Homo sapiens, AN3-CA, read-out: IC50 in cell proliferation assay, cell line AN3-CA (FGFR2 p.N549K)) was 4.14 µM and the IC50 (134 cancer cell lines [6]; Homo sapiens, ASPC1, read-out: IC50 in cell proliferation assay, cell line AsPC-1) was 1.34 µM. It also gave an IC50 (134 cancer cell lines [6]; Homo sapiens, AU565, read-out: IC50 in cell proliferation assay, cell line AU565 (ERBB2 amplification)) of 3.26 µM, an IC50 (134 cancer cell lines [6]; Homo sapiens, BT-20, read-out: IC50 in cell proliferation assay, cell line BT-20) of 6.05 µM and an IC50 (134 cancer cell lines [6]; Homo sapiens, BT-474, read-out: IC50 in cell proliferation assay, cell line BT-474 (ERBB2 amplification)) of 3.2 µM. It also gave an IC50 (134 cancer cell lines [6]; Homo sapiens, BT-549, read-out: IC50 in cell proliferation assay, cell line BT-549) of 3.83 µM, an IC50 (134 cancer cell lines [6]; Homo sapiens, BXPC-3, read-out: IC50 in cell proliferation assay, cell line BxPC-3) of 1.7 µM and an IC50 (134 cancer cell lines [6]; Homo sapiens, C-33-A, read-out: IC50 in cell proliferation assay, cell line C-33 A) of 4.46 µM. The IC50 (134 cancer cell lines [6]; Homo sapiens, CAL-27, read-out: IC50 in cell proliferation assay, cell line CAL-27) was 3.02 µM, the IC50 (134 cancer cell lines [6]; Homo sapiens, CCF-STTG1, read-out: IC50 in cell proliferation assay, cell line CCF-STTG1) was 4.5 µM and the IC50 (134 cancer cell lines [6]; Homo sapiens, CCRF-CEM, read-out: IC50 in cell proliferation assay, cell line CCRF-CEM) was 3.89 µM. The IC50 (134 cancer cell lines [6]; Homo sapiens, COLO 205, read-out: IC50 in cell proliferation assay, cell line COLO 205 (BRAF p.V600E)) was 1.88 µM, the IC50 (134 cancer cell lines [6]; Homo sapiens, COLO-829, read-out: IC50 in cell proliferation assay, cell line COLO 829 (BRAF p.V600E)) was 3.26 µM and the IC50 (134 cancer cell lines [6]; Homo sapiens, DLD-1, read-out: IC50 in cell proliferation assay, cell line DLD-1) was 4.38 µM. The IC50 (134 cancer cell lines [6]; Homo sapiens, DU-4475, read-out: IC50 in cell proliferation assay, cell line DU4475 (BRAF p.V600E)) was 2.18 µM, the IC50 (134 cancer cell lines [6]; Homo sapiens, Daoy, read-out: IC50 in cell proliferation assay, cell line Daoy) was 4.95 µM and the IC50 (134 cancer cell lines [6]; Homo sapiens, DoTc2-4510, read-out: IC50 in cell proliferation assay, cell line DoTc2 4510) was 1.19 µM. The IC50 (134 cancer cell lines [6]; Homo sapiens, EOL1, read-out: IC50 in cell proliferation assay, cell line EoL-1 (FIP1L1-PDGFRA)) was 0.564 µM, the IC50 (134 cancer cell lines [6]; Homo sapiens, FaDu, read-out: IC50 in cell proliferation assay, cell line FaDu) was 3.25 µM and the IC50 (134 cancer cell lines [6]; Homo sapiens, G-361, read-out: IC50 in cell proliferation assay, cell line G-361 (BRAF p.V600E)) was 1.51 µM. For the same compound, the IC50 (134 cancer cell lines [6]; Homo sapiens, HCC827, read-out: IC50 in cell proliferation assay, cell line HCC827 (EGFR exon19del)) was 3.71 µM, the IC50 (134 cancer cell lines [6]; Homo sapiens, HCC4006, read-out: IC50 in cell proliferation assay, cell line HCC4006 (EGFR exon19del)) was 2.73 µM and the IC50 (134 cancer cell lines [6]; Homo sapiens, HCT-15, read-out: IC50 in cell proliferation assay, cell line HCT 15) was 3.81 µM. For the same compound, the IC50 (134 cancer cell lines [6]; Homo sapiens, HCT-116, read-out: IC50 in cell proliferation assay, cell line HCT 116) was 2.72 µM, the IC50 (134 cancer cell lines [6]; Homo sapiens, HEC-1, read-out: IC50 in cell proliferation assay, HEC-1 cell line) was 2.71 µM and the IC50 (134 cancer cell lines [6]; Homo sapiens, HEC-1B, read-out: IC50 in cell proliferation assay, HEC-1-B cell line (EGFR p.A864V)) was 1.96 µM. The IC50 (134 cancer cell lines [6]; Homo sapiens, HL-60, read-out: IC50 in cell proliferation assay, HL-60 cell line) was 0.951 µM, the IC50 (134 cancer cell lines [6]; Homo sapiens, HT, read-out: IC50 in cell proliferation assay, HT cell line) was 4.74 µM and the IC50 (134 cancer cell lines [6]; Homo sapiens, HT-1080, read-out: IC50 in cell proliferation assay, HT-1080 cell line) was 2 µM. It also gave an IC50 (134 cancer cell lines [6]; Homo sapiens, Hs746T, read-out: IC50 in cell proliferation assay, Hs 746.T cell line (MET exon14skip + amplification)) of 3.34 µM, an IC50 (134 cancer cell lines [6]; Homo sapiens, Hs-578T, read-out: IC50 in cell proliferation assay, Hs 578T cell line) of 4.07 µM and an IC50 (134 cancer cell lines [6]; Homo sapiens, HuTu80, read-out: IC50 in cell proliferation assay, HuTu 80 cell line) of 1.67 µM. For the same compound, the IC50 (134 cancer cell lines [6]; Homo sapiens, J82, read-out: IC50 in cell proliferation assay, J82 cell line) was 4.5 µM, the IC50 (134 cancer cell lines [6]; Homo sapiens, Jurkat E6.1, read-out: IC50 in cell proliferation assay, Jurkat E6.1 cell line) was 4.07 µM and the IC50 (134 cancer cell lines [6]; Homo sapiens, K562, read-out: IC50 in cell proliferation assay, K-562 cell line) was 3.97 µM. It also gave an IC50 (134 cancer cell lines [6]; Homo sapiens, KATO III, read-out: IC50 in cell proliferation assay, KATO III cell line (FGFR2 amplification)) of 2.36 µM, an IC50 (134 cancer cell lines [6]; Homo sapiens, KG-1, read-out: IC50 in cell proliferation assay, KG-1 cell line (FGFR1OP2-FGFR1)) of 3.85 µM and an IC50 (134 cancer cell lines [6]; Homo sapiens, KLE, read-out: IC50 in cell proliferation assay, KLE cell line) of 3.58 µM. It also gave an IC50 (134 cancer cell lines [6]; Homo sapiens, KMS-11, read-out: IC50 in cell proliferation assay, KMS-11 cell line (FGFR3 p.Y373C)) of 1.31 µM, an IC50 (134 cancer cell lines [6]; Homo sapiens, KU812, read-out: IC50 in cell proliferation assay, Ku812 cell line) of 1.88 µM and an IC50 (134 cancer cell lines [6]; Homo sapiens, Kasumi 1, read-out: IC50 in cell proliferation assay, Kasumi-1 cell line (KIT p.N822K)) of 1.04 µM. It also gave an IC50 (134 cancer cell lines [6]; Homo sapiens, LC-2-ad, read-out: IC50 in cell proliferation assay, LC-2/ad cell line (CCDC6-RET)) of 2.02 µM, an IC50 (134 cancer cell lines [6]; Homo sapiens, LNCaP-Clone-FGC, read-out: IC50 in cell proliferation assay, LNCaP clone FGC cell line) of 3.72 µM and an IC50 (134 cancer cell lines [6]; Homo sapiens, LS174T, read-out: IC50 in cell proliferation assay, LS174T cell line) of 2 µM. For the same compound, the IC50 (134 cancer cell lines [6]; Homo sapiens, LS-411N, read-out: IC50 in cell proliferation assay, LS411N cell line (BRAF p.V600E)) was 1.97 µM, the IC50 (134 cancer cell lines [6]; Homo sapiens, LoVo, read-out: IC50 in cell proliferation assay, LoVo cell line) was 3.47 µM and the IC50 (134 cancer cell lines [6]; Homo sapiens, MCF7, read-out: IC50 in cell proliferation assay, MCF-7 cell line) was 2.77 µM. For the same compound, the IC50 (134 cancer cell lines [6]; Homo sapiens, MDA-MB-231, read-out: IC50 in cell proliferation assay, MDA-MB-231 cell line) was 0.782 µM, the IC50 (134 cancer cell lines [6]; Homo sapiens, MDA-MB-453, read-out: IC50 in cell proliferation assay, MDA-MB-453 cell line) was 0.944 µM and the IC50 (134 cancer cell lines [6]; Homo sapiens, MDA-MB-468, read-out: IC50 in cell proliferation assay, MDA-MB-468 cell line) was 4.45 µM. It also gave an IC50 (134 cancer cell lines [6]; Homo sapiens, MG-63, read-out: IC50 in cell proliferation assay, MG-63 cell line) of 3.04 µM, an IC50 (134 cancer cell lines [6]; Homo sapiens, MIA PaCa-2, read-out: IC50 in cell proliferation assay, MIA PaCa-2 cell line) of 2.19 µM and an IC50 (134 cancer cell lines [6]; Homo sapiens, MKN-45, read-out: IC50 in cell proliferation assay, MKN45 cell line (MET amplification)) of 3.52 µM.
